How the values were obtained:
[1] = tested on: HL-60 (TB); test: NCI60 five-dose screen; type: cell-based; conditions: Homo sapiens, leukemia
[2] = tested on: MOLT-4; test: NCI60 five-dose screen; type: cell-based; conditions: Homo sapiens, MOLT-4, leukemia
[3] = tested on: RPMI-8226; test: NCI60 five-dose screen; type: cell-based; conditions: Homo sapiens, RPMI-8226, leukemia
[4] = tested on: HOP-62; test: NCI60 five-dose screen; type: cell-based; conditions: Homo sapiens, HOP-62, NSC lung cancer
[5] = tested on: HOP-92; test: NCI60 five-dose screen; type: cell-based; conditions: Homo sapiens, HOP-92, NSC lung cancer
[6] = tested on: NCI-H226; test: NCI60 five-dose screen; type: cell-based; conditions: Homo sapiens, NCI-H226, NSC lung cancer
[7] = tested on: NCI-H23; test: NCI60 five-dose screen; type: cell-based; conditions: Homo sapiens, NCI-H23, NSC lung cancer
[8] = tested on: NCI-H460; test: NCI60 five-dose screen; type: cell-based; conditions: Homo sapiens, NCI-H460, NSC lung cancer
[9] = tested on: HCC-2998; test: NCI60 five-dose screen; type: cell-based; conditions: Homo sapiens, HCC-2998, colon cancer
[10] = tested on: HCT-116; test: NCI60 five-dose screen; type: cell-based; conditions: Homo sapiens, HCT-116, colon cancer
[11] = tested on: HCT-15; test: NCI60 five-dose screen; type: cell-based; conditions: Homo sapiens, HCT-15, colon cancer
[12] = tested on: HT29; test: NCI60 five-dose screen; type: cell-based; conditions: Homo sapiens, HT-29, HT29, colon cancer
[13] = tested on: SF-295; test: NCI60 five-dose screen; type: cell-based; conditions: Homo sapiens, SF-295, CNS cancer
[14] = tested on: LOX IMVI; test: NCI60 five-dose screen; type: cell-based; conditions: Homo sapiens, melanoma
[15] = tested on: M14; test: NCI60 five-dose screen; type: cell-based; conditions: Homo sapiens, M14, melanoma
[16] = tested on: MDA-MB-435; test: NCI60 five-dose screen; type: cell-based, human; conditions: Homo sapiens; MDA-MB-435, melanoma
[17] = tested on: SK-MEL-2; test: NCI60 five-dose screen; type: cell-based; conditions: Homo sapiens, SK-MEL-2, melanoma
[18] = tested on: UACC-257; test: NCI60 five-dose screen; type: cell-based; conditions: Homo sapiens, UACC-257, melanoma
[19] = tested on: IGROV1; test: NCI60 five-dose screen; type: cell-based; conditions: Homo sapiens, IGROV-1; IGROV1, ovarian cancer
[20] = tested on: OVCAR-3; test: NCI60 five-dose screen; type: cell-based; conditions: Homo sapiens, OVCAR-3, ovarian cancer
[21] = tested on: OVCAR-5; test: NCI60 five-dose screen; type: cell-based; conditions: Homo sapiens, OVCAR-5, ovarian cancer
[22] = tested on: OVCAR-8; test: NCI60 five-dose screen; type: cell-based; conditions: Homo sapiens, OVCAR-8, ovarian cancer
[23] = tested on: CAKI-1; test: NCI60 five-dose screen; type: cell-based; conditions: Homo sapiens, CAKI-1, renal cancer
[24] = tested on: UO-31; test: NCI60 five-dose screen; type: cell-based; conditions: Homo sapiens, UO-31, renal cancer
[25] = tested on: PC-3; test: NCI60 five-dose screen; type: cell-based; conditions: Homo sapiens, PC-3, prostate cancer
[26] = tested on: DU-145; test: NCI60 five-dose screen; type: cell-based; conditions: Homo sapiens, DU-145, prostate cancer
[27] = tested on: MDA-MB-231/ATCC; test: NCI60 five-dose screen; type: cell-based; conditions: Homo sapiens, breast cancer
[28] = tested on: HS 578T; test: NCI60 five-dose screen; type: cell-based; conditions: Homo sapiens, breast cancer
[29] = tested on: BT-549; test: NCI60 five-dose screen; type: cell-based; conditions: Homo sapiens, BT-549, breast cancer
[30] = tested on: MDA-MB-468; test: NCI60 five-dose screen; type: cell-based; conditions: Homo sapiens, MDA-MB-468, breast cancer
[31] = tested on: T47D breast cancer cell line; test: Cytotoxicity MTT assay, T47D; type: cell-based, human; conditions: Homo sapiens, T47D; MTT, 48 hours
Procedure, shortened: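 10 000 cells/well, overnight attachment; compound 48 h in DMEM/10% FBS, 37 °C, 5% CO2. MTT 0.5 mg mL^−1, 3 h; formazan in DMSO; A570. % viability vs DMSO vehicle.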

[32] = read-out: LC50 (the source's name)

Compound: Cn1cccc1/C=N/NC(=O)c1[nH]c2ccc(Br)cc2c1-c1ccccc1 [Derivative 3d, (E)-5-Bromo-N′-((1-methyl-1H-pyrrol-2-yl)methylene)-3-phenyl-1H-indole-2-carbohydrazide]
- GI50 [1]: 317 nM
- CC50 [1, 32]: > 100 µM
- GI50 [2]: 438 nM
- CC50 [2, 32]: > 100 µM
- GI50 [3]: 610 nM
- CC50 [3, 32]: > 100 µM
- GI50 [4]: 570 nM
- CC50 [4, 32]: > 100 µM
- GI50 [5]: 429 nM
- CC50 [5, 32]: > 100 µM
- GI50 [6]: 603 nM
- CC50 [6, 32]: > 100 µM
- GI50 [7]: 447 nM
- CC50 [7, 32]: > 100 µM
- GI50 [8]: 442 nM
- CC50 [8, 32]: > 100 µM
- GI50 [9]: 402 nM
- CC50 [9, 32]: > 100 µM
- GI50 [10]: 427 nM
- CC50 [10, 32]: > 100 µM
- GI50 [11]: 228 nM
- CC50 [11, 32]: > 100 µM
- GI50 [12]: 327 nM
- CC50 [12, 32]: > 100 µM
- GI50 [13]: 321 nM
- CC50 [13, 32]: > 100 µM
- GI50 [14]: 494 nM
- CC50 [14, 32]: > 100 µM
- GI50 [15]: 324 nM
- CC50 [15, 32]: > 100 µM
- GI50 [16]: 151 nM
- GI50 [17]: 366 nM
- CC50 [17, 32]: > 100 µM
- GI50 [18]: 416 nM
- CC50 [18, 32]: > 100 µM
- GI50 [19]: 621 nM
- GI50 [20]: 246 nM
- CC50 [20, 32]: > 100 µM
- GI50 [21]: 472 nM
- CC50 [21, 32]: > 100 µM
- GI50 [22]: 390 nM
- CC50 [22, 32]: > 100 µM
- GI50 [23]: 255 nM
- CC50 [23, 32]: > 100 µM
- GI50 [24]: 330 nM
- CC50 [24, 32]: > 100 µM
- GI50 [25]: 564 nM
- CC50 [25, 32]: > 100 µM
- GI50 [26]: 399 nM
- CC50 [26, 32]: > 100 µM
- GI50 [27]: 237 nM
- CC50 [27, 32]: > 100 µM
- GI50 [28]: 220 nM
- CC50 [28, 32]: > 100 µM
- GI50 [29]: 2810 nM
- CC50 [29, 32]: > 100 µM
- GI50 [30]: 155 nM
- CC50 [30, 32]: > 100 µM
- IC50 [31]: 1000 ± 400 nM
